Data on 17 compounds can be found in patent US12655126B2, “Imidazole-pyrazole derivatives as antibacterials” (Hoffmann-La Roche Inc., priority 2020, dated 2026).

Counter-ions that a name gives are not always drawn.

In one experiment the test system is Acinetobacter baumannii ATCC17961. The experiment is described as follows: Antimicrobial susceptibility testing: 90% growth inhibitory concentration (IC90) determination. Particulars: Acinetobacter baumannii ATCC17961; Iso-Sensitest broth; growth by OD 600 nm over 16 h; 90% growth inhibitory concentration; read-out: ATCC 17961 IC90. Type of experiment: cell-based. The essentials:
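Broth microdilution in Iso-Sensitest medium with twofold dilutions (e.g. 50 to 0.097 μM final) and inoculum ~5×10^(5) CFU/ml, 35±2 °C. OD600 was followed for 16 h; IC90 was derived from inhibition during logarithmic growth.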
As a reminder, the IC90 is the concentration needed for an effect of 90%. Consider `COCCNc1ccc(-n2cc(-c3cnc(C(=O)Nc4ccc(C(=O)N5CCN(C(=O)C6CC[N+](C)(C)CC6)CC5)c(Cl)c4)n3C)c(C(F)(F)F)n2)nc1` [Example E2, N-[3-chloro-4-[4-(1,1-dimethylpiperidin-1-ium-4-carbonyl)piperazine-1-carbonyl]phenyl]-5-[1-[5-(2-methoxyethylamino)-2-pyridyl]-3-(trifluoromethyl)pyrazol-4-yl]-1-methyl-imidazole-2-carboxamide; formate], for which the IC90 stood at 300 nM.
On to `CCNc1ccc(-n2cc(-c3cnc(C(=O)Nc4ccc(C(=O)N5CCN(C(=O)C6CC[N+](C)(C)CC6)CC5)c(Cl)c4)n3C)c(C(F)(F)F)n2)nc1` [Example E3, N-[3-chloro-4-[4-(1,1-dimethylpiperidin-1-ium-4-carbonyl)piperazine-1-carbonyl]phenyl]-5-[1-[5-(ethylamino)-2-pyridyl]-3-(trifluoromethyl)pyrazol-4-yl]-1-methyl-imidazole-2-carboxamide; formate], for which the IC90 is 390 nM.
Consider `CNc1ccc(-n2cc(-c3cnc(C(=O)Nc4ccc(C(=O)N5CCN(C(=O)C[N+]6(C)CCC(O)C6)CC5)c(Cl)c4)n3C)c(C(F)(F)F)n2)nc1` (centres unmarked) [Example E5, N-[3-chloro-4-[4-[2-(3-hydroxy-1-methyl-pyrrolidin-1-ium-1-yl)acetyl]piperazine-1-carbonyl]phenyl]-1-methyl-5-[1-[5-(methylamino)-2-pyridyl]-3-(trifluoromethyl)pyrazol-4-yl]imidazole-2-carboxamide; formate], for which the concentration for an effect of 90% (IC90) amounted to 220 nM.
Turning to `CNc1ccc(-n2cc(-c3cnc(C(=O)Nc4ccc(C(=O)N5CCN(C(=O)[C@@H]6[C@@H](O)CC[N+]6(C)C)CC5)c(Cl)c4)n3C)c(C(F)(F)F)n2)nc1` [Example E6, N-[3-chloro-4-[4-[(2S,3S)-3-hydroxy-1,1-dimethyl-pyrrolidin-1-ium-2-carbonyl]piperazine-1-carbonyl]phenyl]-1-methyl-5-[1-[5-(methylamino)-2-pyridyl]-3-(trifluoromethyl)pyrazol-4-yl]imidazole-2-carboxamide; formate], the IC90 was 370 nM.
For the compound `CNc1ccc(-n2cc(-c3cnc(C(=O)Nc4ccc(C(=O)N5CCN(C(=O)C6CC[N+](C)(C)CC6)CC5)c(C)c4)n3C)c(C(F)(F)F)n2)nc1` [Example E7, N-[4-[4-(1,1-dimethylpiperidin-1-ium-4-carbonyl)piperazine-1-carbonyl]-3-methyl-phenyl]-1-methyl-5-[1-[5-(methylamino)-2-pyridyl]-3-(trifluoromethyl)pyrazol-4-yl]imidazole-2-carboxamide; formate], the 90% effect concentration (IC90) was 330 nM.
On to `CNc1ccc(-n2cc(-c3cnc(C(=O)Nc4ccc(C(=O)N5CCN(C(=O)[C@@H]6CC[N+](C)(C)C[C@H]6O)CC5)c(Cl)c4)n3C)c(C(F)(F)F)n2)nc1` [Example E8, N-[3-chloro-4-[4-[(3S,4R)-3-hydroxy-1,1-dimethyl-piperidin-1-ium-4-carbonyl]piperazine-1-carbonyl]phenyl]-1-methyl-5-[1-[5-(methylamino)-2-pyridyl]-3-(trifluoromethyl)pyrazol-4-yl]imidazole-2-carboxamide; formate], for which the IC90 is 220 nM.
As for `Cn1c(-c2cn(-c3ccc(CO)cn3)nc2C(F)(F)F)cnc1C(=O)Nc1ccc(C(=O)N2CCN(C(=O)C3CC[N+](C)(C)CC3)CC2)c(Cl)c1` [Example F1, N-[3-Chloro-4-[4-(1,1-dimethylpiperidin-1-ium-4-carbonyl)piperazine-1-carbonyl]phenyl]-5-[1-[5-(hydroxymethyl)-2-pyridyl]-3-(trifluoromethyl)pyrazol-4-yl]-1-methyl-imidazole-2-carboxamide; formate], the IC90 was found to be 390 nM.
Still for that read-out and setting: the figure for `COCCOc1ccc(-n2cc(-c3cnc(C(=O)Nc4ccc(C(=O)N5CCN(C(=O)C6CC[N+](C)(C)CC6)CC5)c(Cl)c4)n3C)c(C(F)(F)F)n2)nc1` [Example G1, N-[3-Chloro-4-[4-(1,1-dimethylpiperidin-1-ium-4-carbonyl)piperazine-1-carbonyl]phenyl]-5-[1-[5-(2-methoxyethoxy)-2-pyridyl]-3-(trifluoromethyl)pyrazol-4-yl]-1-methyl-imidazole-2-carboxamide; formate] is 350 nM; for `Cn1c(-c2cn(-c3ccc(N)cn3)nc2C(F)(F)F)cnc1C(=O)Nc1ccc(C(=O)N2CCC(C(=O)N3CC[N+](C)(C)CC3)CC2)c(Cl)c1` [Example H1, 5-[1-(5-Amino-2-pyridyl)-3-(trifluoromethyl)pyrazol-4-yl]-N-[3-chloro-4-[4-(4,4-dimethylpiperazin-4-ium-1-carbonyl)piperidine-1-carbonyl]phenyl]-1-methyl-imidazole-2-carboxamide; formate] it is 610 nM; for `Cn1c(-c2cn(-c3ccc(N)cn3)nc2C#N)cnc1C(=O)Nc1ccc(C(=O)N2CCN(C(=O)C3CC[N+](C)(C)CC3)CC2)c(Cl)c1` [Example J2, 5-[1-(5-amino-2-pyridyl)-3-cyano-pyrazol-4-yl]-N-[3-chloro-4-[4-(1,1-dimethylpiperidin-1-ium-4-carbonyl)piperazine-1-carbonyl]phenyl]-1-methyl-imidazole-2-carboxamide; 2,2,2-trifluoroacetate] it is 9830 nM.
The same measure, in the same setting: the figure for `Cc1nn(-c2ccc(N)cn2)cc1-c1cnc(C(=O)Nc2ccc(C(=O)N3CCN(C(=O)C4CC[N+](C)(C)CC4)CC3)c(Cl)c2)n1C` [Example J3, 5-[1-(5-amino-2-pyridyl)-3-methyl-pyrazol-4-yl]-N-[3-chloro-4-[4-(1,1-dimethylpiperidin-1-ium-4-carbonyl)piperazine-1-carbonyl]phenyl]-1-methyl-imidazole-2-carboxamide; formate] is 10000 nM.
Take `Cc1c[nH]nc1-n1cc(-c2cnc(C(=O)Nc3ccc(C(=O)N4CCN(C(=O)C5CC[N+](C)(C)CC5)CC4)c(Cl)c3)n2C)c(C(F)(F)F)n1` [Example K2, N-[3-chloro-4-[4-(1,1-dimethylpiperidin-1-ium-4-carbonyl)piperazine-1-carbonyl]phenyl]-1-methyl-5-[1-(4-methyl-1H-pyrazol-3-yl)-3-(trifluoromethyl)pyrazol-4-yl]imidazole-2-carboxamide; 2,2,2-trifluoroacetate]: the IC90 came out at 4360 nM.
Regarding `COCc1c[nH]nc1-n1cc(-c2cnc(C(=O)Nc3ccc(C(=O)N4CCN(C(=O)C5CC[N+](C)(C)CC5)CC4)c(Cl)c3)n2C)c(C(F)(F)F)n1` [Example K3, N-[3-chloro-4-[4-(1,1-dimethylpiperidin-1-ium-4-carbonyl)piperazine-1-carbonyl]phenyl]-5-[1-[4-(methoxymethyl)-1H-pyrazol-3-yl]-3-(trifluoromethyl)pyrazol-4-yl]-1-methyl-imidazole-2-carboxamide], the IC90 came out at 1300 nM.
On to `CNC(=O)CCNc1ccc(-n2cc(-c3cnc(C(=O)Nc4ccc(C(=O)N5CCN(C(=O)C6CC[N+](C)(C)CC6)CC5)c(Cl)c4)n3C)c(C(F)(F)F)n2)nc1` [Example L2, N-[3-chloro-4-[4-(1,1-dimethylpiperidin-1-ium-4-carbonyl)piperazine-1-carbonyl]phenyl]-5-[1-[5-[[3-keto-3-(methylamino)propyl]amino]-2-pyridyl]-3-(trifluoromethyl)pyrazol-4-yl]-1-methyl-imidazole-2-carboxamide], for which the concentration for an effect of 90% (IC90) is 330 nM.

Staying with this experiment, now noted: Acinetobacter baumannii, ATCC17961, 16 h, read-out: ATCC 17961 IC90.
In the case of `CNc1ccc(-n2cc(-c3cnc(C(=O)Nc4ccc(C(=O)N5CCN(C(=O)C6CC[N+](C)(C)CC6)CC5)c(Cl)c4)n3C)c(C(F)(F)F)n2)nc1` [Example E1, N-[3-Chloro-4-[4-(1,1-dimethylpiperidin-1-ium-4-carbonyl)piperazine-1-carbonyl]phenyl]-1-methyl-5-[1-[5-(methylamino)-2-pyridyl]-3-(trifluoromethyl)pyrazol-4-yl]imidazole-2-carboxamide; formate], the IC90 is 100 nM.
As for `Cn1c(-c2cn(-c3ccc(N)nn3)nc2C(F)(F)F)cnc1C(=O)Nc1ccc(C(=O)N2CCN(C(=O)C3CC[N+](C)(C)CC3)CC2)c(Cl)c1` [Example K1, 5-[1-(6-Aminopyridazin-3-yl)-3-(trifluoromethyl)pyrazol-4-yl]-N-[3-chloro-4-[4-(1,1-dimethylpiperidin-1-ium-4-carbonyl)piperazine-1-carbonyl]phenyl]-1-methyl-imidazole-2-carboxamide; 2,2,2-trifluoroacetate], the IC90 amounted to 1600 nM.
As for `Cn1c(-c2cn(-c3ccc(NCCN)cn3)nc2C(F)(F)F)cnc1C(=O)Nc1ccc(C(=O)N2CCN(C(=O)C3CC[N+](C)(C)CC3)CC2)c(Cl)c1` [Example M1, 5-[1-[5-(2-aminoethylamino)-2-pyridyl]-3-(trifluoromethyl)pyrazol-4-yl]-N-[3-chloro-4-[4-(1,1-dimethylpiperidin-1-ium-4-carbonyl)piperazine-1-carbonyl]phenyl]-1-methyl-imidazole-2-carboxamide; 2,2,2-trifluoroacetic acid; 2,2,2-trifluoroacetate], the IC90 came out at 100 nM.
